Where two headings read alike, the source gives them in different places.

Among the data in patent publication US10711000B2 (Fronthera U.S. Pharmaceuticals LLC, priority 2018, dated 2020) are IC50 values, retold here.

This experiment deals with T1, Autotaxin (Homo sapiens, UniProt Q13822).
T1 construct: from tissue; host or cells: pooled human plasma
The experiment is described as follows: LPA formation in pooled human plasma (ex vivo autotaxin inhibition). The conditions noted are these: 2 hours incubation. It is filed as biochemical. An outline of the steps:
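Ex vivo: LPA 18:2 and 20:4 levels in compound-treated versus untreated pooled human plasma after 2 h incubation, measured by butanol extraction and negative-mode MRM LC/MS/MS against calibration standards. IC50 from non-linear fit of inhibition versus concentration.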

Where [1] appears, read: LPA 18:2 by LC/MS/MS, read-out: LPA formation (18:2) (IC50).
The mark [2] stands for this setting: LPA 20:4 by LC/MS/MS, read-out: LPA formation (20:4) (IC50).

As usually defined, the IC50 is the concentration needed to halve the response being measured. Consider `Cc1cc(N2CC3(CN(C(=O)C(C)(C)O)C3)C2)cc2c(N(C)c3nc(-c4ccc(F)cc4)c(C#N)s3)c(C3CC3)nn12` [Example 77, 2-((2-cyclopropyl-5-(6-(2-hydroxy-2-methylpropanoyl)-2,6-diazaspiro[3.3]heptan-2-yl)-7-methylpyrazolo[1,5-a]pyridin-3-yl)(methyl)amino)-4-(4-fluorophenyl)thiazole-5-carbonitrile], for which the concentration for half-maximal inhibition (IC50) is ≤ 0.1 µM under setting [1] and ≤ 0.1 µM under setting [2].
Consider `Cc1cc(N2CC3(CN(C(=O)[C@H]4CCOC4)C3)C2)cc2c(N(C)c3nc(-c4ccc(F)cc4)c(C#N)s3)c(C3CC3)nn12` [Example 78, (S)-2-((2-cyclopropyl-7-methyl-5-(6-(tetrahydrofuran-3-carbonyl)-2,6-diazaspiro[3.3]heptan-2-yl)pyrazolo[1,5-a]pyridin-3-yl)(methyl)amino)-4-(4-fluorophenyl)thiazole-5-carbonitrile], for which the IC50 by setting is: under setting [1], ≤ 0.1 µM; under setting [2], ≤ 0.1 µM.
`Cc1cc(N2CCN(CC(N)=O)CC2)cc2c(N(C)c3nc(-c4ccc(F)cc4)c(C#N)s3)c(C3CC3)nn12` [Example 79]: the concentration for half-maximal inhibition (IC50) is, setting by setting: under setting [1], 0.5 to 1 µM; under setting [2], 0.5 to 1 µM.
As for `Cc1cc(N2CCN(CC(=O)O)CC2)cc2c(N(C)c3nc(-c4ccc(F)cc4)c(C#N)s3)c(C3CC3)nn12` [Example 80, 2-(4-(3-((5-cyano-4-(4-fluorophenyl)thiazol-2-yl)(methyl)amino)-2-cyclopropyl-7-methylpyrazolo[1,5-a]pyridin-5-yl)piperazin-1-yl)acetic acid], the 50% inhibitory concentration (IC50) under setting [1] was > 1 µM and the half-maximal inhibitory concentration (IC50) under setting [2] was > 1 µM.
With `Cc1cc(N2CCN(C[C@@H](O)CO)CC2)cc2c(N(C)c3nc(-c4ccc(F)cc4)c(C#N)s3)c(C3CC3)nn12` [Example 82, (R)-2-((2-cyclopropyl-5-(4-(2,3-dihydroxypropyl)piperazin-1-yl)-7-methylpyrazolo[1,5-a]pyridin-3-yl)(methyl)amino)-4-(4-fluorophenyl)thiazole-5-carbonitrile], the concentration for half-maximal inhibition (IC50) runs as follows: under setting [1], 0.1 to 0.5 µM; under setting [2], 0.1 to 0.5 µM.
Take `Cc1cc(N2CCN(C[C@H](O)CO)CC2)cc2c(N(C)c3nc(-c4ccc(F)cc4)c(C#N)s3)c(C3CC3)nn12` [Example 83, (S)-2-((2-cyclopropyl-5-(4-(2,3-dihydroxypropyl)piperazin-1-yl)-7-methylpyrazolo[1,5-a]pyridin-3-yl)(methyl)amino)-4-(4-fluorophenyl)thiazole-5-carbonitrile]: the half-inhibitory concentration (IC50) fell in the range of 0.5 to 1 µM under setting [1] and 0.5 to 1 µM under setting [2].
On to `Cc1cc(N2CC3(CN(C(=O)C4CN(C)C4)C3)C2)cc2c(N(C)c3nc(-c4ccc(F)cc4)c(C#N)s3)c(C3CC3)nn12` [Example 84, 2-((2-cyclopropyl-7-methyl-5-(6-(1-methylazetidine-3-carbonyl)-2,6-diazaspiro[3.3]heptan-2-yl)pyrazolo[1,5-a]pyridin-3-yl)(methyl)amino)-4-(4-fluorophenyl)thiazole-5-carbonitrile], for which the IC50 runs as follows: under setting [1], ≤ 0.1 µM; under setting [2], ≤ 0.1 µM.
`Cc1cc(N2CC3(CN(C(=O)C4CCN(C)C4)C3)C2)cc2c(N(C)c3nc(-c4ccc(F)cc4)c(C#N)s3)c(C3CC3)nn12` (centres unmarked) [Example 85, 2-((2-cyclopropyl-7-methyl-5-(6-(1-methylpyrrolidine-3-carbonyl)-2,6-diazaspiro[3.3]heptan-2-yl)pyrazolo[1,5-a]pyridin-3-yl)(methyl)amino)-4-(4-fluorophenyl)thiazole-5-carbonitrile]: the IC50 was in the range of 0.1 to 0.5 µM under setting [1] and 0.1 to 0.5 µM under setting [2].
As for `Cc1cc(N2CCC3(CN(C(=O)[C@H]4CCOC4)C3)C2)cc2c(N(C)c3nc(-c4ccc(F)cc4)c(C#N)s3)c(C3CC3)nn12` [Example 86, (S)-2-((2-cyclopropyl-7-methyl-5-(2-(tetrahydrofuran-3-carbonyl)-2,6-diazaspiro[3.4]octan-6-yl)pyrazolo[1,5-a]pyridin-3-yl)(methyl)amino)-4-(4-fluorophenyl)thiazole-5-carbonitrile], the concentration for half-maximal inhibition (IC50) was ≤ 0.1 µM under setting [1] and ≤ 0.1 µM under setting [2].
Consider `Cc1cc(N2CC(O)C2)cc2c(N(C)c3nc(-c4ccc(F)cc4)c(C#N)s3)c(C3CC3)nn12` [Example 87, 2-[[2-cyclopropyl-5-(3-hydroxyazetidin-1-yl)-7-methyl-pyrazolo[1,5-a]pyridin-3-yl]-methyl-amino]-4-(4-fluorophenyl)thiazole-5-carbonitrile], for which the half-inhibitory concentration (IC50) reads like this: under setting [1], > 1 µM; under setting [2], > 1 µM.
For the compound `Cc1cc(N2CC(C#N)C2)cc2c(N(C)c3nc(-c4ccc(F)cc4)c(C#N)s3)c(C3CC3)nn12` [Example 88, 2-[[5-(3-cyanoazetidin-1-yl)-2-cyclopropyl-7-methyl-pyrazolo[1,5-a]pyridin-3-yl]-methyl-amino]-4-(4-fluorophenyl)thiazole-5-carbonitrile], the 50% inhibitory concentration (IC50) by setting is: under setting [1], > 1 µM; under setting [2], > 1 µM.
Consider `Cc1cc(N2CC3(CN(C(=O)C4(O)CCOCC4)C3)C2)cc2c(N(C)c3nc(-c4ccc(F)cc4)c(C#N)s3)c(C3CC3)nn12` [Example 90, 2-((2-cyclopropyl-5-(6-(4-hydroxytetrahydro-2H-pyran-4-carbonyl)-2,6-diazaspiro[3.3]heptan-2-yl)-7-methylpyrazolo[1,5-a]pyridin-3-yl)(methyl)amino)-4-(4-fluorophenyl)thiazole-5-carbonitrile], for which the half-maximal inhibitory concentration (IC50) reads like this: under setting [1], ≤ 0.1 µM; under setting [2], ≤ 0.1 µM.
Turning to `Cc1cc(N2CC3(CN(C(=O)C45CC(C4)C5)C3)C2)cc2c(N(C)c3nc(-c4ccc(F)cc4)c(C#N)s3)c(C3CC3)nn12` [Example 91, 2-((5-(6-(bicyclo[1.1.1]pentane-1-carbonyl)-2,6-diazaspiro[3.3]heptan-2-yl)-2-cyclopropyl-7-methylpyrazolo[1,5-a]pyridin-3-yl)(methyl)amino)-4-(4-fluorophenyl)thiazole-5-carbonitrile], the concentration for half-maximal inhibition (IC50) runs as follows: under setting [1], 0.1 to 0.5 µM; under setting [2], 0.1 to 0.5 µM.
On to `Cc1cc(N2CCN(C3COCC3O)CC2)cc2c(N(C)c3nc(-c4ccc(F)cc4)c(C#N)s3)c(C3CC3)nn12` (centres unmarked) [Example 92], for which the IC50 lay in the range of 0.1 to 0.5 µM under setting [1] and 0.1 to 0.5 µM under setting [2].
On to `Cc1cc(N2CCC(N3CC(O)C3)CC2)cc2c(N(C)c3nc(-c4ccc(F)cc4)c(C#N)s3)c(C3CC3)nn12` [Example 93, 2-((2-cyclopropyl-5-(4-(3-hydroxyazetidin-1-yl)piperidin-1-yl)-7-methylpyrazolo[1,5-a]pyridin-3-yl)(methyl)amino)-4-(4-fluorophenyl)thiazole-5-carbonitrile], for which the concentration for half-maximal inhibition (IC50) was in the range of 0.1 to 0.5 µM under setting [1] and 0.1 to 0.5 µM under setting [2].
In the case of `Cc1cc(N2CCN(C3COC3)CC2)cc2c(N(C)c3nc(-c4ccc(F)cc4)c(C#N)s3)c(C3CC3)nn12` [Example 94, 2-((2-cyclopropyl-7-methyl-5-(4-(oxetan-3-yl)piperazin-1-yl)pyrazolo[1,5-a]pyridin-3-yl)(methyl)amino)-4-(4-fluorophenyl)thiazole-5-carbonitrile], the IC50 reads like this: under setting [1], 0.1 to 0.5 µM; under setting [2], 0.5 to 1 µM.
Take `CCc1nn2c(C)cc(N3CCN(CC(=O)N4CC(O)C4)CC3)nc2c1N(C)c1nc(-c2ccc(F)cc2)c(C#N)s1` [Example 95, 2-((2-ethyl-5-(4-(2-(3-hydroxyazetidin-1-yl)-2-oxoethyl)piperazin-1-yl)-7-methylpyrazolo[1,5-a]pyrimidin-3-yl)(methyl)amino)-4-(4-fluorophenyl)thiazole-5-carbonitrile]: the half-inhibitory concentration (IC50) was > 1 µM under setting [1] and > 1 µM under setting [2].
In the case of `CCc1nn2cc(C)c(N3CCN(CC(=O)N4CC(O)C4)CC3)cc2c1N(C)c1nc(-c2ccc(F)cc2)c(C#N)s1` [Example 96, 2-((2-ethyl-5-(4-(2-(3-hydroxyazetidin-1-yl)-2-oxoethyl)piperazin-1-yl)-6-methylpyrazolo[1,5-a]pyridin-3-yl)(methyl)amino)-4-(4-fluorophenyl)thiazole-5-carbonitrile], the IC50 reads like this: under setting [1], ≤ 0.1 µM; under setting [2], ≤ 0.1 µM.
With `CCc1nn2cc(C)c(N3CC4(CN(C(=O)C(C)(C)O)C4)C3)cc2c1N(C)c1nc(-c2ccc(F)cc2)c(C#N)s1` [Example 98, 2-((2-ethyl-5-(6-(2-hydroxy-2-methylpropanoyl)-2,6-diazaspiro[3.3]heptan-2-yl)-6-methylpyrazolo[1,5-a]pyridin-3-yl)(methyl)amino)-4-(4-fluorophenyl)thiazole-5-carbonitrile], the IC50 was 0.1 to 0.5 µM under setting [1] and 0.1 to 0.5 µM under setting [2].
Turning to `CCc1nn2cc(C)c(N3CC4(CN(C(=O)C(O)CO)C4)C3)cc2c1N(C)c1nc(-c2ccc(F)cc2)c(C#N)s1` (centres unmarked) [Example 99, 2-((5-(6-(2,3-dihydroxypropanoyl)-2,6-diazaspiro[3.3]heptan-2-yl)-2-ethyl-6-methylpyrazolo[1,5-a]pyridin-3-yl)(methyl)amino)-4-(4-fluorophenyl)thiazole-5-carbonitrile], the IC50 reads like this: under setting [1], ≤ 0.1 µM; under setting [2], ≤ 0.1 µM.
As to `Cc1cn2nc(C3CC3)c(N(C)c3nc(-c4ccc(F)cc4)c(C#N)s3)c2cc1N1CCN(CC(=O)N2CC(O)C2)CC1` [Example 100, 2-((2-cyclopropyl-5-(4-(2-(3-hydroxyazetidin-1-yl)-2-oxoethyl)piperazin-1-yl)-6-methylpyrazolo[1,5-a]pyridin-3-yl)(methyl)amino)-4-(4-fluorophenyl)thiazole-5-carbonitrile], the half-maximal inhibitory concentration (IC50) by setting is: under setting [1], ≤ 0.1 µM; under setting [2], ≤ 0.1 µM.
As to `CCc1nn2cc(F)c(N3CC4(CN(C(=O)N5CCN(C)CC5)C4)C3)cc2c1N(C)c1nc(-c2ccc(F)cc2)c(C#N)s1` [Example 105, 2-((2-ethyl-6-fluoro-5-(6-(4-methylpiperazine-1-carbonyl)-2,6-diazaspiro[3.3]heptan-2-yl)pyrazolo[1,5-a]pyridin-3-yl)(methyl)amino)-4-(4-fluorophenyl)thiazole-5-carbonitrile], the IC50 by setting is: under setting [1], ≤ 0.1 µM; under setting [2], ≤ 0.1 µM.
